Marks after values point to notes of the source that are not given here.

In data set [1] the test system is luciferase expressing Raji (lymphoma cell line) cells. Kind of data set: Luciferase based phagocytosis assay (macrophages, combination with anti-human CD20 antibody). Format: cell-based. To be noted: in combination with anti-human CD20 antibody, compared with compound alone; FIG. 1. How it is done: In vitro phagocytosis assay was performed to evaluate the ability of test item to enhance the phagocytic activity of macrophages. Monocytes were isolated from blood of healthy donor and cultured for 6-8 days using 10% RPMI (Roswell Park Memorial Institute) media and recombinant human M-CSF to differentiate into macrophages. Media was changed every alternate day. After differentiation, adherent macrophages were collected by gentle scraping and cultured in 10% RPMI overnight at a density of 0.1 million per well in 48 well tissue culture plate. Simultaneously, luciferase expressing Raji (lymphoma cell line) cells were cultured in 10% RPMI media with 100 μg/mL of hygromycin B in tissue culture flask. On the day of phagocytosis, macrophages were serum starved for 2 hours. 0.4 million luciferase expressing Raji cells per well were incubated with anti-human CD47 antibody or Mouse IgG1 K Isotype Control antibody or various concentrations of selected compounds of the present invention alone or in combination with anti-human CD20 antibody in serum free media for 30 min at 37° C. and added into respective well of the 48 well plate seeded with macrophages. […] Luminescence reading was taken using plate reader after transferring the content of each well to white plate. Intensity of luminescence indicated the extent of phagocytosis. […]

Data set [2] concerns H929 (multiple myeloma cell line) cells. Kind of data set: Human macrophage phagocytosis assay in combination with bortezomib. Format: cell-based. To be noted: H929 cells treated with 10 nM bortezomib for 48 hrs, compared with compound alone; FIG. 2. The procedure: In vitro phagocytosis assay was performed to evaluate the ability of test item to enhance the phagocytic activity of macrophages. Monocytes were isolated from blood of healthy donors and cultured for 6-8 days using complete RPMI (Roswell Park Memorial Institute) supplemented with 20 ng/mL recombinant human M-CSF to differentiate them into macrophages. Media was changed every alternate day. Simultaneously H929 cells were cultured in complete RPMI media and treated with 10 nM bortezomib for 48 hrs. Macrophages were starved for 2 hrs in serum free RPMI.CFSE stained, Bortezomib treated/untreated H929 (multiple myeloma cell line) cells were seeded at a density of 0.2×10^6 cells/well in 96-well low attachment plate and treated with anti-human CD47 purified B6H12 (5 μg/mL)/Mouse IgG1 K Isotype Control antibody (5 μg/mL)/different concentrations of selected compounds of the present invention in serum free media for 30 min at 37° C. Serum starved macrophages were added to H929 cells at a ratio of 1:4 (macrophages:H929 cells) and incubated for 2 hours at 37° C. Cells in each well were stained with anti-human CD11b APC for 30 minutes at 4° C. in dark followed by fixation and FACS analysis. Cells positive for FITC and APC were considered as H929 cells phagocytosed by macrophages. Data acquired using FACS verse was analysed using Flow Jo software.

Data set [3] relates to A20 syngeneic lymphoma model. Kind of data set: Efficacy study in A20 syngeneic lymphoma model. Format: in vivo, Balb/c mice. The source says: Female Balb/c (BALB/cAnNTac) mice (6-8 weeks-old) bred in-house were used in this efficacy study in the A20 syngeneic lymphoma model. The animals were marked individually with tail marks and kept in cages that were identified by a cage card showing the study code, date of experimentation, sex and number of animals. During the experiment, the animals were weighed daily. A20 cell line (B-cell lymphoma line derived from a spontaneous reticulum cell neoplasm found in an old BALB/cAnN mouse) was procured from ATCC.
When the mean tumor volumes reached approximately 75 mm^3, the animals were randomized based on tumor volumes into four groups (G1 to G4) of twelve animals (N=12) each and dosed with vehicle, Compound 6, anti-mouse PD-L1 antibody and the combination of Compound 6 and anti-mouse PD-L1 antibody as mentioned below:
The treatment was continued for a period of 21 days, during which the overall efficacy and tolerability were evaluated based on tumor volume and body weight changes observed during the treatment period.
Individual animal body weights were recorded daily before the administration of Compound 6 throughout the experimental period. […] The tumor volumes were measured in all treatment group animals thrice a week (once every 2-3 days) using a digital Vernier callipers. From an ethical viewpoint, any treatment/control group with a mean tumor weight in excess of 10% of animal body weight were humanely sacrificed. As a measure of efficacy, the % T (treatment)/C(control) and % TGI (% Tumor growth inhibition) values were calculated. Graphs and statistical analysis were performed using GraphPad Prism®, Version 7.0. For analysis of tumor volume data, statistical comparison was done on Day 18 for all groups using One-way ANOVA with Dunnett's multiple comparison test. All analyses and comparisons was evaluated at the 5% (p<0.05) level. A “p” value less than 0.05 was considered as significant.

With `N=C(N)NCCC[C@H](NC(=O)N1CCCC1C(=O)O)c1nc([C@@H](N)CCC(=O)O)no1` (stereo partly shown) [Compound 3], the “phagocytosis of lymphoma cells (luminescence intensity)” value in data set [1] is reported as “Enhanced phagocytosis”. The “phagocytosis of multiple myeloma cells (FACS, FITC and APC positive cells)” value in data set [2] is recorded as “Enhanced phagocytosis”.

For the molecule `NC(=O)CC[C@H](N)c1noc(CNC(=O)N2CCCC2C(=O)O)n1` (stereo partly shown) [Compound 6], in data set [1], the “phagocytosis of lymphoma cells (luminescence intensity)” value is “Enhanced phagocytosis”. For the same molecule, the “% TGI” value in data set [3] (A20 tumor bearing Balb/c mice, Compound 6 30 mg/kg bid oral, anti-mouse PD-L1 antibody 200 μg/animal i.p. Day 1, 3, 6, 9, statistics on Day 18) was 72* %. In data set [3] (Compound 6 30 mg/kg bid, single agent or in combination with PD-L1 antibody, 21 days), the “tolerability (clinical signs, mortality)” value was “well tolerated without any treatment related clinical signs and mortality”. The “tumor growth inhibition (TGI)” value in data set [3] (at the end of treatment period (21 days), Compound 6 30 mg/kg, A20 tumor bearing mice) is listed as 72%. Besides, the “phagocytosis of multiple myeloma cells (FACS, FITC and APC positive cells)” value in data set [2] is “Enhanced phagocytosis”.

Source of the values: patent US12268670B2, “Combination of small molecule CD-47 inhibitors with other anti-cancer agents” (Aurigene Oncology Limited, priority 2018, dated 2025).
